We go through seven molecules from US9597323B2, “Aminoester derivatives” (CHIESI FARMACEUTICI S.p.A., priority 2015, dated 2017).

Where two headings read alike, the source gives them in different places.

One experiment has as its target T1, Human M3 receptor (Homo sapiens, UniProt P20309).
T1 construct: purchased Perkin Elmer
The experiment is described as follows: M3 Receptor radioligand binding assay. The note with it: for Ki: calculated from IC50 by Cheng and Prusoff equation. As for the experimental part:
M3 Receptor Radioligand Binding Assay:
The assay is carried out in 96-well polypropylene plates in a volume of 250 μl. […] The final assay concentration of DMSO is 0.5% (v/v). The plates are sealed and incubated for 2 h at room temperature on an orbital shaker (slow speed). Membranes are harvested onto 96-well unifilter GF/C filter plates pre-treated with 0.5% polyethyleneimine (v/v), using a filter manifold, washed four times with 200 μl of assay buffer. The plates are dried before addition of 50 μl of microscint-0, sealed then read in a Trilux Microbeta scintillation counter. IC50 values are determined from competition curves using a non-linear curve fitting program. Ki values are calculated from IC50 values by the Cheng and Prusoff equation.

For another experiment, the target named is Human recombinant PDE4B2 (Homo sapiens, UniProt Q07343). The experiment can be described thus: PDE4B2 HTRF assay. The format is biochemical. As for the experimental part:
PDE4B2 activity is detected using the LANCE Ultra cAMP homogeneous time resolved fluorescence resonance energy transfer (TR-FRET) assay from Perkin Elmer. The assay is based on the competition between the europium (Eu) chelate-labeled cAMP tracer and sample cAMP for binding sites on cAMP-specific monoclonal antibodies (mAb) labelled with the ULight™ dye. The assay is carried out in 384-well low volume plates in a volume of 10 μl. Human recombinant PDE4B2 (80 pM) is incubated for 2 h with 3 nM cAMP in buffer containing 1×HBSS, 5 mM HEPES, 3 mM MgCl2, 0.1% BSA, pH 7.4 with or without test compounds. The enzymatic reactions are efficiently stopped by the addition of 500 μM IBMX present in the combined Stop/Detection buffer containing europium (Eu) chelate-labeled cAMP tracer and cAMP-specific monoclonal antibodies (mAb) labelled with the ULight™ dye. […] IC50 values are determined from competition curves using a non-linear curve fitting program.
In general terms: Time-resolved FRET reads energy transfer from a long-lived donor to a nearby acceptor.

The test system of experiment [1] is Cch-evoked bronchoconstriction. The experiment is described as follows: Bronchospasm, percentage of inhibition (Cch-induced bronchoconstriction in rats). The format is in vivo, rat. The note with it: for inhibition at 16 h: 16 h after intratracheal administration of the sub-maximal inhibition dose; for sub-maximal inhibition Dose [inhibition at 1 h]: dose producing about 80% inhibition of the bronchospasm after 1 h, intratracheal. As for the experimental part: Protocol of Bronchospasm-Percentage of Inhibition Animals Male CD Sprague Dawley rats (220-250 g) were purchased from Charles River Laboratories Italy (Calco, Lecco). Prior to use animals were acclimated for at least 5 days to the local vivarium conditions (room temperature: 20-24° C.; relative humidity: 40-70%), having free access to standard rat chow and softened tap water. All the procedures were performed in animal operating rooms according to ethical guidelines for the conduct of animal research (D. L.vo 116/92). […] Animals were anaesthetized with Urethane (1.2 g/kg, i.p.) and a laryngoscope was moved forward into the mouth to visualize the trachea and guide the insertion of the tip of a custom made small diameter cannula directly into the trachea and located 1-2 mm above the bifurcation. […] The target concentration was obtained by dilution of the DMSO stock in saline. Test compounds were instilled locally into the trachea in a volume of 125 μl. Experimental Procedure In order to assess the residual inhibitory activity of test compounds at 1 to 16 hours after their administration, rats were surgically prepared. In order to assess the Cch-induced bronchoconstriction in rats, the infusion of physiological solution was stopped and the bronchospastic agent injected into the jugular vein using the same cannula. Soon after washing the cannula with saline to ensure the complete administration of the bronchoconstrictor agent, the saline infusion was started again. Body temperature was kept constant at 37° C. by a heated blanket. The trachea was cannulated and the lungs were ventilated artificially with a small animal constant volume ventilator (rodent ventilator mod. 7025, Ugo Basile, Comerio, Varese, Italy) at a frequency of 80 strokes/min and at a tidal volume of 2.5 ml/kg. To avoid spontaneous breathing, the animals were injected intravenously (i.v.) with pancuronium bromide (2 mg/kg). Bronchoconstriction was induced by the i.v. injection of Cch 50 μg/kg. In control experiments, repeated injections of this dose produced reproducible short-lasting (1-2 min duration) bronchospasms. Bronchoconstriction, quantified as a reduction of tidal volume, was evaluated according to the method described by Konzett & Roessler in Konzett H. and Roessler R. (1940). Versuchanornungzu untersuchungen […]. Arch. Exp. Path. Pharmak.; 195:71-74, which is incorporated herein by reference in its entirety. Systemic blood pressure and changes in airway resistance were monitored with a digital pressure transducer connected to a bridge amplifier (PowerLab; Ugo Basile, Italy) and recorded using Chart 5 software (Ugo Basile, Italy). […] The effect of test compounds was expressed as % inhibition of Cch-evoked bronchoconstriction in time-matched, vehicle-treated, animals (controls).

The test system of the next experiment is COPD patients. Conditions: cited from earlier work.
Setting [2] is: patients with severe disease, frequent exacerbations and mucus hypersecretion.

T1 sequence (P20309 whole entry): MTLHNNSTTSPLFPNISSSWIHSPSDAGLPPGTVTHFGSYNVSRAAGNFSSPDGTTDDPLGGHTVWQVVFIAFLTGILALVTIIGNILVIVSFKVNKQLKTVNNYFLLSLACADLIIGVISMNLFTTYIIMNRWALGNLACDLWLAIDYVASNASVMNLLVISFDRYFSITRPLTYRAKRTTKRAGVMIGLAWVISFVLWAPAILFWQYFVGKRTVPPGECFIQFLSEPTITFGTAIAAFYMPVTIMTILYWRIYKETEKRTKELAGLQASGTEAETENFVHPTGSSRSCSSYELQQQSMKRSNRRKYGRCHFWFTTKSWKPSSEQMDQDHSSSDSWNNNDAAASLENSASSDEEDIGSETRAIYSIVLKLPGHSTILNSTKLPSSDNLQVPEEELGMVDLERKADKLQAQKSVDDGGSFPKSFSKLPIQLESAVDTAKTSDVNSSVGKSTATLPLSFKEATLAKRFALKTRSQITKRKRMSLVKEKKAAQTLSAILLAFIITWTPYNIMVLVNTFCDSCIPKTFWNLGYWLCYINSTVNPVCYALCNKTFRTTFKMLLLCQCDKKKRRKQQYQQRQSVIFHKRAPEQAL
Sequence of Human recombinant PDE4B2 (Q07343 1-564 isoform Q07343-2): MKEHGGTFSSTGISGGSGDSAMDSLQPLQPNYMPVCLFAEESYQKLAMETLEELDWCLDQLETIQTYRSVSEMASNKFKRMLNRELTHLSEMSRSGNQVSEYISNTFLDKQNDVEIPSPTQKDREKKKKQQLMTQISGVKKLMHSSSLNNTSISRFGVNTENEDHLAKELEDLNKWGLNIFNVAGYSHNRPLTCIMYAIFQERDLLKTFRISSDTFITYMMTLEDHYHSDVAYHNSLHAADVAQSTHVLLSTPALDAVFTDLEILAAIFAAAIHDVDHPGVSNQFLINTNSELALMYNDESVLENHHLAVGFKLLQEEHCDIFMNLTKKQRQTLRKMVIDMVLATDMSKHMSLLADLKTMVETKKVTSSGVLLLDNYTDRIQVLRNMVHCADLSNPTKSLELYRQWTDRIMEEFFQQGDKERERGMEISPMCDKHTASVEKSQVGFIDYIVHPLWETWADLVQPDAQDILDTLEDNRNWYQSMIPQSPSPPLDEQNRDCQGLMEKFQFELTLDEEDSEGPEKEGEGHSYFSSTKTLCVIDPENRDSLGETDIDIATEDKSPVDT

As usually defined, the IC50 is the midpoint of a concentration-inhibition curve. Consider `COc1ccc([C@H](Cc2c(Cl)c[n+]([O-])cc2Cl)OC(=O)c2cccc(CNC(C(=O)OCC3CCN(C)CC3)c3ccccc3)c2)cc1OC` (stereo partly drawn) [Example 5, [(1S)-2-(3,5-dichloro-1-oxido-pyridin-1-ium-4-yl)-1-(3,4-dimethoxyphenyl)ethyl] 3-[[[2-[(1-methyl-4-piperidyl)-methoxy]-2-oxo-1-phenyl-ethyl]amino]methyl]benzoate], for which the 50% inhibitory concentration (IC50) at Human M3 receptor (read-out: M3 IC50 activity) and at Human recombinant PDE4B2 was 1 to 10 nM throughout.

Turning to `COc1ccc([C@H](Cc2c(Cl)c[n+]([O-])cc2Cl)OC(=O)c2ccc(CNC(C(=O)OCC3CCN(C)CC3)c3ccccc3)cc2)cc1OC` (single isomer, unassigned) [Example 2], the half-inhibitory concentration (IC50) at Human M3 receptor (read-out: M3 IC50 activity) and on Human recombinant PDE4B2 was 1 to 10 nM throughout.

Turning to `COc1ccc([C@H](Cc2c(Cl)c[n+]([O-])cc2Cl)OC(=O)c2cccc(CNC(C(=O)OCC3CCN(C)CC3)c3ccccc3)c2)cc1OC` (mixture of isomers) [Example 1, [(1S)-2-(3,5-dichloro-1-oxido-pyridin-1-ium-4-yl)-1-(3,4-dimethoxyphenyl)ethyl] 3-[[[2-[(1-methyl-4-piperidyl)methoxy]-2-oxo-1-phenyl-ethyl]amino]methyl]benzoate], the concentration for half-maximal inhibition (IC50) at Human M3 receptor (read-out: M3 IC50 activity) is 1 to 10 nM; on Human recombinant PDE4B2 it was less than 1 nM.

Broadly, the Ki is the dissociation constant of the complex between target and ligand, obtained from inhibition or displacement. As usually defined, the inhibition is the percentage by which the read-out fell short of the control. Read a high inhibition as a strong effect. Turning to `COc1ccc([C@H](Cc2c(Cl)c[n+]([O-])cc2Cl)OC(=O)c2ccc(CNC(C(=O)OCC3CCN(C)CC3)c3ccccc3)cc2)cc1OC` (single isomer, unassigned) [Example 7], the inhibition constant (Ki) on Human M3 receptor is 0.45 nM. The half-inhibitory concentration (IC50) at Human M3 receptor (read-out: M3 IC50) was 0.9 nM; at Human M3 receptor (read-out: M3 IC50 activity), less than 1 nM; on Human recombinant PDE4B2, 1 to 10 nM. For the same molecule, the “inhibition at 16 h” value in experiment [1] is listed as more than 90%. In addition, the “sub-maximal inhibition Dose [inhibition at 1 h]” value in experiment [1] is 30 nmol/kg.

For the molecule `O=C(Nc1c(Cl)cncc1Cl)c1ccc(OC(F)F)c(OCC2CC2)c1` [roflumilast], the “reduction of numbers of neutrophils in sputum” value in the experiment with COPD patients (COPD patients, oral, over four weeks) is on record as 36%. In the experiment with COPD patients (setting [2]), the “improvement of FEV 1” value is recorded as “approximately 50 mL” and the reduction of exacerbation entry is recorded as “about 15%”.

Take `COc1ccc([C@H](Cc2c(Cl)c[n+]([O-])cc2Cl)OC(=O)c2ccc(CNC(C(=O)OC3CCN(C)CC3)c3ccccc3)cc2)cc1OC` (single isomer, unassigned) [Example 7C, reference compound]: at Human M3 receptor, the inhibitory constant (Ki) was 0.09 nM. For the same molecule, the IC50 on Human M3 receptor (read-out: M3 IC50) worked out at 0.17 nM. Also, in experiment [1], the “inhibition at 16 h” value is given as less than 10% and the “sub-maximal inhibition Dose [inhibition at 1 h]” value came to 3 nmol/kg.

`COc1ccc([C@H](Cc2c(Cl)c[n+]([O-])cc2Cl)OC(=O)c2ccc(CNC(C(=O)OCC3CCN(C)CC3)c3cccc(O)c3)cc2)cc1OC` (stereo partly drawn) [Example 11, [(1S)-2-(3,5-dichloro-1-oxido-pyridin-1-ium-4-yl)-1-(3,4-dimethoxyphenyl)ethyl] 4-[[[1-(3-hydroxyphenyl)-2-[(1-methyl-4-piperidyl)-methoxy]-2-oxo-ethyl]amino]methyl]benzoate]: the half-inhibitory concentration (IC50) at Human M3 receptor (read-out: M3 IC50 activity) and on Human recombinant PDE4B2 was 1 to 10 nM throughout.
